Like-named read-outs stand apart in the source and are kept apart here. One block for each molecule: values may come before it.
Experiments:
PDE4B1 enzyme = PDE4B1 enzyme (Homo sapiens (Human), UniProt Q07343); assay: In vitro PDE4B enzyme activity detection test (IMAP FP, FAM-cAMP substrate); assay type: biochemical; conditions: PDE4B1 0.04 nM, FAM-cAMP 0.1 μM, 25° C. 30 min
Protocol: Test Example 1 In vitro PDE4B Enzyme Activity Detection Test
1. Experimental Materials
First, a stock solution of the compound at a concentration of 10 mM was prepared in a test tube with 90% DMSO (10% water), and it was used to prepare a series of dilutions with a dilution factor of 1:5 and final concentrations starting from 100 μM to as low as 0.05 nM.
0.2 μl of the compound solution was transferred into a 384-well reaction plate, and 0.2 μl of 100% DMSO was transferred into both the negative and positive controls. Then, 10 μl of 2×PDE4B1 enzyme solution (making a final concentration of 0.04 nM) was added to each well, and 10 μl of 1×reaction buffer instead of the enzyme solution was added to the zero enzyme activity control wells. The plate was centrifuged at 1,000 rpm for 1 min and incubated at room temperature for 15 min. Next, 10 μl of 2×FAM-cAMP substrate solution (making a substrate final concentration of 0.1 μM) was added to each well of the 384-well reaction plate. The plate was centrifuged at 1,000 rpm for 1 min and the reaction was carried out at 25° C. for 30 min. After completion of the reaction, 60 μl of reaction stop solution was added to each well of the 384-well reaction plate to terminate the reaction, and the plate was incubated with shaking at 600 rpm on a shaker at room temperature in the dark for 60 min.
After the incubation, the RLU data were read and the inhibition rate was calculated. The IC50 value was calculated from the concentration-inhibition fitted curve, wherein the maximum value refers to the reading of the DMSO control and the minimum value refers to the reading of the zero enzyme activity control.
The in vitro inhibition of PDE4B1 enzyme activity by the Examples of the present disclosure was determined by the above test, and the measured IC50 value was shown in Table 1.

[1] = tested on: TNF-α release from peripheral blood mononuclear cells (PBMCs); assay: Inhibition of pro-inflammatory cytokine (TNF-α) release from LPS-stimulated PBMCs, ELISA; assay type: cell-based; conditions: LPS 0.1 ng/ml, 24 hours
Source text: Test Example 2 Inhibitory Effect of Compounds on the Release of Pro-Inflammatory Cytokines from Peripheral Blood Mononuclear Cells (PBMCs)
Frozen PBMCs were thawed and detected by Trypan blue staining for cell viability and number. The thawed PBMCs were washed with RPMI1640 complete medium (RPMI1640+10% FBS+1% PS) and centrifuged, and the supernatant was discarded. The PBMCs were resuspended with RPMI1640 complete medium and the cell density was adjusted to 2×10^6 cells/mL. 2×10^5 PBMC cells were plated in a 96-well cell culture plate, and the compounds to be tested were added at different concentrations, in a 1:5 serial dilution of 9 concentrations starting from a maximum compound concentration of 100 μM, each in duplicate. LPS was added at a final concentration of 0.1 ng/ml, making a total volume of 200 μL. For the negative and positive controls, only LPS and DMSO were added to the negative control well, while 1 μg/mL of dexamethasone was added to the positive control well in addition to cells and LPS as. The cells were incubated in an incubator at 37° C. for 24 hours. After completion of the incubation, 100 μL of cell culture supernatant was collected and detected by ELISA for the TNF-α level. 100 μL of CellTiter-Glo was added to the remaining cells in each well to detect the cell viability level. The IC50 value of inhibition of TNF-α release by the compounds was calculated.
The in vitro inhibition of pro-inflammatory cytokine release of PBMCs by the Examples of the present disclosure was determined by the above test, and the determined IC50 value was shown in Table 2.

[2] = tested on: IL-23 secretion of DC cells differentiated from human mononuclear cells; assay: In vitro inhibition of IL-23 secretion of DC cells differentiated from human mononuclear cells, Zymosan stimulation, ELISA; assay type: cell-based; conditions: Table 3: inhibition of IL-23 secretion of DC cells, Zymosan 200 μg/ml, 24 hours
Protocol: Test Example 3 Experiment of in vitro Inhibition of IL-23 Secretion of DC Cells Differentiated from Human Mononuclear Cells by the Compounds
Day 0: Mononuclear cells were isolated from fresh human peripheral blood and purified and then resuspended in RPMI-1640 complete medium (RPMI-1640+10% FBS+1% P.S.+55 μM 2-Mercaptoethanol). When differentiating into DC cells, IL-4 at a concentration of 50 ng/ml and GM-CSF at 100 ng/ml were added to the medium. The cells were cultured at a density of 1×10^6 cells/mL in a culture dish with a diameter of 100 mm for differentiation in an incubator at 37° C. with a carbon dioxide concentration of 5%. Day 3: Half the volume of RPMI complete medium was replaced with fresh RPMI complete medium while maintaining the concentration of IL-4 at 50 ng/ml and GM-CSF at 100 ng/ml. Day 6: Non-adherent cells (DC cells) in the culture dish were collected and washed with PBS. The washed DC cells were resuspended with RPMI complete medium at a density of 1×10^6 cells/mL. Then. 1×10^5 DC cells were added to each well of the 96-well cell culture plate and pre-incubated with different dilutions of the compounds to be tested (or DMSO blank negative control at equivalent concentration) for 1 hour, followed by addition of 200 μg/ml of the TLR2 agonist Zymosan to stimulate the DC cells for 24 hours. Day 7: After 24 hours of Zymosan stimulation of DC cells. the supernatant in each well of the 96-well plate was collected and detected by ELISA for the concentration of IL-23.
The inhibition of IL-23 secretion of DC cells differentiated from human mononuclear cells by the compounds of the present disclosure was determined by the above test, and the determined IC50 value was shown in Table 3.

[3] = tested on: imiquimod-induced psoriasis mouse model; assay: Suppression of imiquimod-induced psoriasis in mice (topical ointment); assay type: in vivo, Balb/c female mice; conditions: for Ratio of spleen weight to body weight Mean / Total clinical score Mean / Erythema score Mean / Scale score Mean / Thickness score Mean: IMQ mice; for Ratio of spleen weight to body weight Mean: Day 7, percentage of spleen to body weight; for Total clinical score Mean: endpoint; for Erythema score Mean / Scale score Mean / Thickness score Mean: scale 0-4; for clinical score at the endpoint (statement): each dose of Compound 12-1; for clinical score at the endpoint (statement) / effect on the ratio of spleen weight to body weight (statement): versus model; for effect on the ratio of spleen weight to body weight (statement): three dose groups of Compound 12-1
Source text: Test Example 4 Experiment of Suppression of Imiquimod-Induced Psoriasis
An appropriate amount of Compound 12-1 was formulated into an ointment with the following components: 0.1% of Compound 12-1, 9% of hexanediol, 78.8% of white petrolatum, 5% of paraffin, 7% of glyceryl mono- and distearate, and 0.1% of […], which were mechanically stirred until an ointment was formed.
1) Model Establishment and Drug Administration
7-Week-old Balb/c female mice were used and the hair on their back in an area of 2 cm×3 cm was shaved the day before the experiment. On Days 1-7 of the experiment, the test compounds were applied on the skin for 6 hours, and then imiquimod (IMQ) ointment (Aldara (5%)) was continuously applied to the back skin of mice for 7 days, so as to establish a mouse model of psoriasis, while the control group was given the same dose of petrolatum ointment. On Days 3, 5 and 7, the severity of skin inflammation was assessed, including measurement of skin thickness, crusting and erythema, scored on a 5-point scale (0-4) respectively. The total score was used to assess the severity of skin inflammation. On Day 7 of the experiment, the spleen was collected and weighed, and the percentage of spleen to body weight was calculated to assess the immunosuppressive effect of the drug.
Normal control group, model control group, low, medium and high dose groups of Compound 12-1 (0.01%, 0.03% and 0.1%), 0.03% Compound 1-1 group, and 0.03% reference Compound A group were set up in this experiment.
The total score of the degree of skin inflammation was the clinical score, the indicators of which were relatively subjective, and higher score indicated more serious disease. The degree of increase in skin thickness was an objective assessment indicator, and more increase in thickness indicated more serious disease. The ratio of spleen weight to body weight was an objective assessment indicator, and smaller ratio of spleen weight to body weight indicated stronger immunosuppressive effect of the drug.

[4] = Compound A 0.03%, Compound 1-1 0.03%

Sequence of PDE4B1 enzyme (Q07343 whole entry): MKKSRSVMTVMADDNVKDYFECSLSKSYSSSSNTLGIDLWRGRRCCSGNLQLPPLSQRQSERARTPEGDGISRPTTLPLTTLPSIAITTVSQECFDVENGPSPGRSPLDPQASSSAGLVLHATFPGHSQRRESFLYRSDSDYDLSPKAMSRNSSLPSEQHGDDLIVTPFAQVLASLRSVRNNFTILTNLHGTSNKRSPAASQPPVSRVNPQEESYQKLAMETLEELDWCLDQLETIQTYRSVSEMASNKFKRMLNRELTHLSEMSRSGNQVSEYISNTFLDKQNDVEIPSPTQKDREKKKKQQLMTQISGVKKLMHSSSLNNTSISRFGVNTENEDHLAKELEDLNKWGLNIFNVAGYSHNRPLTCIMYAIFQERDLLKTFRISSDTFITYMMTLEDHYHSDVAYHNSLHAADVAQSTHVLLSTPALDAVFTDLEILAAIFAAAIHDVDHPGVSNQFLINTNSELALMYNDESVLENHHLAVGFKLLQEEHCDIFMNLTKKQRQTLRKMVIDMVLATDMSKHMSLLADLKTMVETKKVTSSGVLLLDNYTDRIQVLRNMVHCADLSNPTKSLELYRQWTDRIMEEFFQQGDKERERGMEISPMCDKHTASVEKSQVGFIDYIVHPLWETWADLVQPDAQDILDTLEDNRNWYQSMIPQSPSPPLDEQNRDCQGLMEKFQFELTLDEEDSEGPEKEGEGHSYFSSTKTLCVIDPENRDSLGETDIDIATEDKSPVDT

SMILES: COc1ccc(-c2cncc(C3COB(O)C3)c2)c2c1OC(C)C2 (stereo not drawn) [Compound 2]
IC50 (PDE4B1 enzyme): 4.5 nM

SMILES: COc1ccc(-c2cc(C3COB(O)C3)cnn2)c2c1OC1(CCCC1)C2 (stereo not drawn) [Compound 5]
IC50 ([1]; PBMC): 1.56 nM

SMILES: COc1ccc(-c2cncc([C@@H]3COB(O)C3)n2)c2c1OC(C)(C)CC2 [Compound 12-1]
IC50 ([1]; PBMC): 0.055 nM | IC50 ([2]; Homo sapiens, PBMC): 0.018 nM | Ratio of spleen weight to body weight Mean ([3]; 0.01% applied on skin): 0.64 | Total clinical score Mean ([3]; 0.01% applied on skin): 9.5 | Erythema score Mean ([3]; 0.01% applied on skin): 4 | Scale score Mean ([3]; 0.01% applied on skin): 3.13 | Thickness score Mean ([3]; 0.01% applied on skin): 2.38 | Ratio of spleen weight to body weight Mean ([3]; 0.03% applied on skin): 0.43 | Total clinical score Mean ([3]; 0.03% applied on skin): 7.57 | Erythema score Mean ([3]; 0.03% applied on skin): 3.86 | Scale score Mean ([3]; 0.03% applied on skin): 2.14 | Thickness score Mean ([3]; 0.03% applied on skin): 1.57 | Ratio of spleen weight to body weight Mean ([3]; 0.1% applied on skin): 0.31 | Total clinical score Mean ([3]; 0.1% applied on skin): 6.75 | Erythema score Mean ([3]; 0.1% applied on skin): 3.63 | Scale score Mean ([3]; 0.1% applied on skin): 1.38 | Thickness score Mean ([3]; 0.1% applied on skin): 1.75

SMILES: COc1ccc(-c2cccc(C3COB(O)C3)c2)c2c1OC1(CCCC1)C2 (stereo not drawn) [Compound 3]
IC50 (PDE4B1 enzyme): 1.1 nM

SMILES: COc1ccc(-c2cncc(C3COB(O)C3)c2)c2c1OC(C)(C)CC2 (stereo not drawn) [Compound 9]
IC50 ([1]; PBMC): 0.3 nM | IC50 (PDE4B1 enzyme): 0.25 nM

SMILES: O=C(Nc1c(Cl)cncc1Cl)c1ccc(OC(F)F)c(OCC2CC2)c1 [Roflumilast, reference compound]
IC50 ([2]; Homo sapiens, PBMC): 12.9 nM

SMILES: COc1ccc(-c2cncc(C3COB(O)C3)c2)c2c1OC(C)(C)CO2 (stereo not drawn) [Compound 8]
IC50 ([1]; PBMC): 0.74 nM

SMILES: COc1ccc(-c2cncc(C3COB(O)C3)c2)c2ccc(C(F)(F)F)nc12 (stereo not drawn) [Compound 10]
IC50 ([1]; PBMC): 0.9 nM | IC50 (PDE4B1 enzyme): 0.16 nM

SMILES: COc1ccc(-c2cncc(C3COB(O)C3)c2)c2c1OC(C)(C)C2 (stereo not drawn) [Compound 6]
IC50 ([1]; PBMC): 1.56 nM | IC50 (PDE4B1 enzyme): 0.41 nM

More lines, in order of falling IC50 (PDE4B1 enzyme), values ahead:

IC50 (PDE4B1 enzyme): 0.4 nM
SMILES: COc1ccc(-c2cncc([C@H]3COB(O)C3)c2)c2c1OC1(CCCC1)C2 [Compound 1-2]
IC50 ([1]; read-out: PBMC IC50): 3.26 nM

IC50 (PDE4B1 enzyme): 0.3 nM | IC50 ([2]; Homo sapiens, PBMC): 0.61 nM
SMILES: CCCOc1cc(-c2cncc([C@@H]3COB(O)C3)c2)ccc1OC [Compound A, reference compound]
IC50 ([1]; PBMC): 1.16 nM | Ratio of spleen weight to body weight Mean ([3]; 0.03% applied on skin): 0.96 | Total clinical score Mean ([3]; 0.03% applied on skin): 8.33 | Erythema score Mean ([3]; 0.03% applied on skin): 3.33 | Scale score Mean ([3]; 0.03% applied on skin): 2.5 | Thickness score Mean ([3]; 0.03% applied on skin): 2.5 | clinical score at the endpoint (statement) [3, 4]: significantly reduce the clinical score | effect on the ratio of spleen weight to body weight (statement) [3, 4]: no significant effect | increase of skin thickness (statement) ([3]; low and high dose groups of Compound 12-1 (0.01%, 0.1%), Compound A 0.03%): no significant effect

IC50 (PDE4B1 enzyme): 0.11 nM | IC50 ([2]; read-out: PBMC IC50): 0.12 nM
SMILES: COc1ccc(-c2cncc([C@@H]3COB(O)C3)c2)c2c1OC1(CCCC1)C2 [Compound 1-1]
IC50 ([1]; read-out: PBMC IC50): 0.32 nM | Ratio of spleen weight to body weight Mean ([3]; 0.03% applied on skin): 0.63 | Total clinical score Mean ([3]; 0.03% applied on skin): 8.5 | Erythema score Mean ([3]; 0.03% applied on skin): 3.63 | Scale score Mean ([3]; 0.03% applied on skin): 2.75 | Thickness score Mean ([3]; 0.03% applied on skin): 2.13 | single item scores (statement) ([3]; Compound 1-1 0.03%, each dose group of Compound 12-1): mainly improve scab and reduce skin thickness | clinical score at the endpoint (statement) [3, 4]: significantly reduce the clinical score | effect on the ratio of spleen weight to body weight (statement) [3, 4]: significantly reduce the ratio of spleen weight to body weight | effect on the ratio of spleen weight to body weight compared with Compound A ([3]; same dose (0.03%)): significantly different from that of Compound A

IC50 (PDE4B1 enzyme): 0.083 nM
SMILES: COc1ccc(-c2cncc(C3COB(O)C3)n2)c2c1OC1(CCCC1)C2 (stereo not drawn) [Compound 4]
IC50 ([1]; PBMC): 2.15 nM

IC50 (PDE4B1 enzyme): 0.055 nM
SMILES: COc1ccc(-c2cncc(C3COB(O)C3)c2)c2cc(C(F)(F)F)nn12 (stereo not drawn) [Compound 7]
IC50 ([1]; PBMC): 0.36 nM

Source: patent publication US20240083921A1, “BORATE DERIVATIVE AND USES THEREOF” (Reistone Biopharma Company Limited, priority 2020, published 2024)
